Assay results: patent US12246005B2, “5-methoxy-n,n-dimethyltryptamine (5-MeO-DMT) formulations” (Beckley Psytech Limited, priority 2023, dated 2025)
Entries after “also recorded” stand apart in the source; their conditions may differ. Structures can show the parent of a compound that is named as a salt.

Columns and labels:
[1] = Thermal decomposition properties of salt forms (TGA); assay type: physicochemical
Text: The thermal decomposition properties of a range of salt forms of 5-MeO-DMT has been investigated and is summarised in the report below: […]

[2] = Phase 1 single ascending dose study of liquid intranasal 5-MeO-DMT HCl formulation; assay type: in vivo, human; conditions: liquid intranasal formulation, 5, 8, 10, 11 and 14 mg, healthy subjects
Text: (§1) The applicant has funded double-blind, randomized, Phase 1, single ascending dose studies to evaluate the safety, tolerability and pharmacokinetic profile of intranasal 5-MeO-DMT hydrochloride and intranasal 5-MeO-DMT benzoate in healthy subjects. […] It is desirable that a compound for use in treatment has dose-proportional pharmacokinetics, for example, to facilitate dose and dose regimen adjustment in patients. In an embodiment, there is provided a salt of 5-MeO-DMT with dose-proportional pharmacokinetics, optionally for use in the methods disclosed herein. In an embodiment, the salt of 5-MeO-DMT with dose-proportional pharmacokinetics is the benzoate or HBr salt, optionally the benzoate salt. A double-blind, randomized, Phase 1, single ascending dose study to evaluate the safety, tolerability and pharmacokinetic profile of a liquid intranasal 5-MeO-DMT HCl (5-MeO-DMT HCl, HPMC, water for injection (WFI) and a sodium hydroxide solution to adjust pH) formulation in healthy subjects was performed.

[3] = Phase 1 single ascending dose study of intranasal 5-MeO-DMT benzoate (safety, tolerability, pharmacokinetics); assay type: in vivo, human
Text: as §1
A double-blind, randomized, Phase 1, single ascending dose study to evaluate the safety, tolerability and pharmacokinetic profile of intranasal 5-MeO-DMT benzoate in healthy subjects was performed.

[4] = Solubility studies of lyophilised amorphous form (dissolution rate); assay type: physicochemical
Text: Amorphous 5-MeO-DMT salt formulations have been produced via lyophilisation processes. It is noted that in some cases these have low glass transition temperatures. Conversion to a crystalline form may therefore occur, perhaps rapidly.

[5] = Irritation tolerability; conditions: in particular when compared to the chloride salt
[6] = Previous preclinical work in dogs defining maximum exposure limits; conditions: dog, in vivo
[7] = Hygroscopicity; assay type: physicochemical
Text: In an embodiment, the formulation is non-hygroscopic. […] Hygroscopicity is the phenomenon of attracting and holding water molecules via either adsorption or absorption from the surrounding environment. Pharmaceuticals that pick up less than 0.2% moisture at 80% RH are considered non hygroscopic. […] Pharmaceuticals that pick up more than 15.0% moisture at 80% RH are considered very hygroscopic. Hygroscopic substances are difficult to handle and costly and burdensome measures must be taken in order to ensure they are not exposed to moisture during process and formulation. Exposed to moisture, hygroscopic substances can take on water and convert to a hydrous form. This presents several disadvantages. First, the hydrous forms may have the disadvantage of being less bioavailable and less dissoluble than the anhydrous forms. Second, the variation in the amount of hydrous versus anhydrous substance from batch to batch could fail to meet specifications set by drug regulatory agencies. […] Fourth, in addition to problems caused by introduction of moisture during the processing of these hygroscopic substances, the potential for absorbance of moisture during storage and handling would adversely affect the dissolubility of the drug substance.

[8] = at 20° C. water; cited from earlier work

In the case of 5-MeO-DMT glycolate, the “TGA Guidance: decomposition temperature” value [1] is reported as “Melt 95° C., gross dcomp starts 170 °C”.
In the case of 5-MeO-DMT malate, the “TGA Guidance: decomposition temperature” value [1] is reported as “Melt 100° C, gross dcomp starts 250 °C”.
For 5-MeO-DMT tartrate, the “TGA Guidance: decomposition temperature” value [1] was “Melt ~140° C., decomp ~200 °C”.
With COc1ccc2[nH]cc(CCN(C)C)c2c1.Cl [5-MeO-DMT HCl, 5-MeO-DMT hydrochloride] the “dose proportionality of pharmacokinetics” value [2] was “does not display dose-proportional pharmacokinetics”.
In the case of COc1ccc2[nH]cc(CCN(C)C)c2c1.O=C(O)c1ccccc1 [5-MeO-DMT benzoate], the “dose proportionality of pharmacokinetics” value ([3]; intranasal single ascending dose, healthy subjects) is reported as “exhibits dose-proportional pharmacokinetics; also recorded: approximately dose linear”, the “mean Cmax” value ([3]; intranasal, 12 mg dosage, healthy subjects, plasma 5-MeO-DMT) is reported as 29 ng/mL and the “mean Tmax” value ([3]; intranasal, healthy subjects) is reported as 9.5 min. The “mean half-life (T1/2)” value ([3]; intranasal, healthy subjects) was 21 min, the “TGA Guidance: decomposition temperature” value [1] was about 220 °C and the “TGA Guidance: mass loss” value [1] was “full mass loss”. For the same compound, the dissolution rate [4] was “almost instantaneous dissolution rate” and the irritation tolerability [5] was “good irritation tolerability”.
With COc1ccc2[nH]cc(CCN(C)C)c2c1.O=S(=O)(O)c1ccccc1 [Benzenesulfonate, 5-MeO-DMT benzenesulfonate] the “TGA Guidance: decomposition temperature” value [1] was “Melt 76° C., gross dcomp starts 280 °C”.
In the case of CN(C)CCc1c[nH]c2ccc(O)cc12 [Bufotenin], the “detection of metabolite in plasma” value ([3]; after intranasal 5-MeO-DMT benzoate, 6 mg dose level, after the 16 minutes timepoint) is reported as “only detected at very low levels”.
COc1ccc2[nH]cc(CCN(C)C)c2c1 [Example 5-MeO-DMT, 5-methoxy-N,N-dimethyltryptamine] showed an AUC ([6]; read-out: maximum exposure limit AUC) of 220 ng·h/mL and a Cmax ([6]; read-out: maximum exposure limit Cmax) of 421 ng/mL.
With COc1ccc2[nH]cc(CCN(C)C)c2c1 [Fumarate, 5-MeO-DMT fumarate] the “TGA Guidance: decomposition temperature” value [1] was “Decomp around 200 °C”.
In the case of Br.COc1ccc2[nH]cc(CCN(C)C)c2c1 [Hydrobromide, 5-MeO-DMT hydrobromide], the “TGA Guidance: decomposition temperature” value [1] is reported as “Melt 149° C., gross dcomp starts 220 °C” and the hygroscopicity [7] is reported as “non-hygroscopic”.
For COc1ccc2[nH]cc(CCN(C)C)c2c1 [Ketoglutarate, 5-MeO-DMT ketoglutarate], the “TGA Guidance: decomposition temperature” value [1] was “Melt 85° C., gross dcomp starts 170 °C”.
For COc1ccc2[nH]cc(CCN(C)C)c2c1.O=C(O)C(=O)O [Oxalate, 5-MeO-DMT oxalate], the “TGA Guidance: mass loss” value [1] was “Melts 176° C., full mass loss”.
With COc1ccc2[nH]cc(CCN(C)C)c2c1 [Phosphate, 5-MeO-DMT phosphate] the “TGA Guidance: decomposition temperature” value [1] was “Decomp around 200 °C”.
In the case of COc1ccc2[nH]cc(CCN(C)C)c2c1 [Saccharinate, 5-MeO-DMT saccharinate], the “TGA Guidance: decomposition temperature” value [1] is reported as “Melt 80° C., gross dcomp starts 180 °C”.
In the case of COc1ccc2[nH]cc(CCN(C)C)c2c1 [Tosylate, 5-MeO-DMT tosylate], the “TGA Guidance: decomposition temperature” value [1] is reported as “Melt 110° C, gross dcomp starts 280 °C ° C”.
For isomalt, the Solubility [8] is given as 42 g/100 g solution.
